Measured values as given in patent US4820834A, “Benzodiazepine analogs” (priority 1987, dated 1989).
Read-outs that look alike come from different tables or passages of the source.

Key:
CCK receptor (pancreas) = target: T1, CCK receptor (pancreas) (Rattus norvegicus, UniProt P30551); assay: CCK Receptor Binding (Pancreas): inhibition of ^125 I-CCK-33 binding; set-up: species or system Male Sprague-Dawley rats; conditions: rat pancreas membranes, ^125 I-CCK-33, 37° C., 30 minutes
T1 construct: The whole pancreas was dissected free of fat tissue and was homogenized; from tissue; host or cells: rat pancreas membranes (Sprague-Dawley)
T1 sequence (P30551 1-444): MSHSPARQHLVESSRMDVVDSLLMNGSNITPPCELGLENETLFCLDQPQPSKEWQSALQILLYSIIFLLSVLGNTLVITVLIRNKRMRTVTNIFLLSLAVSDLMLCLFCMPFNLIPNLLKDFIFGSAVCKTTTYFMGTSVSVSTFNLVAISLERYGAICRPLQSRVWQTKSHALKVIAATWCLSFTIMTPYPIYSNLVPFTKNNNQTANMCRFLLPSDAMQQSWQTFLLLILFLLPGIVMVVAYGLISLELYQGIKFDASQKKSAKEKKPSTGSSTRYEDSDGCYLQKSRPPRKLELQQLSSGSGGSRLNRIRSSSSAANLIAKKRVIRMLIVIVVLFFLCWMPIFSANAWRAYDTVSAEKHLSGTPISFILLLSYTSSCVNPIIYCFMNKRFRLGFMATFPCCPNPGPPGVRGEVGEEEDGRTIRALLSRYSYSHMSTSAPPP
Method: 1. CCK Receptor Binding (Pancreas)
CCK-33 was radiolabeled with ^125 I-Bolton Hunter reagent (2000 Ci/mmole) as described by Sankara et al. (J. Biol. Chem. 254: 9349-9351, 1979). Receptor binding was performed according to Innis and Snyder (Proc. Natl. Acad. Sci. 77: 6917-6921, 1980) with the minor modification of adding the additional protease inhibitors, phenylmethane sulfonyl fluoride and o-phenanthroline.
Male Sprague-Dawley rats (200-350 g) were sacrificed by decapitation. The whole pancreas was dissected free of fat tissue and was homogenized in 20 volumes of ice-cold 50 mM, Tris HCl (pH 7.7 at 25° C.) with a Brinkmann Polytron PT 10. The homogenates were centrifuged at 48,000 g for 10 min. Pellets were resuspended in Tris Buffer, centrifuged as above and resuspended in 200 volumes of binding assay buffer (50 mM Tris HCl, pH 7.7 at 25° C., 5 mM dithiothrietol, 0.1 mM bacitracin, 1.2 mM phenylmethane sulfonyl fluoride and 0.5 mM o-phenanthroline). […] All assays were run in duplicate or triplicate. The reaction mixtures were incubated at 37° C. for 30 minutes and centrifuged in a Beckman Microfuge (4 minutes) immediately after adding 1 ml of ice-cold incubation buffer. The supernatant was aspirated and discarded, pellets were counted with a Beckman gamma 5000. For Scatchard analysis (Ann. N.Y. Acad. Sci. 51: 660, 1949), ^125 I-CCK-33 was progressively diluted with increasing concentrations of CCK-33.

[1] = target: T2, CCK receptor (brain, cerebral cortex) (Cavia porcellus, UniProt H0VZC5); assay: biochemical; assay type: binding, Male Hartley guinea pigs; conditions: guinea pig cerebral cortex, ^125 I-CCK-33, 25° C., 2 hours
T2 construct: Cerebral cortex was dissected and used as a receptor source; from tissue; host or cells: guinea pig cerebral cortex membranes (male Hartley)
T2 sequence (H0VZC5 1-426): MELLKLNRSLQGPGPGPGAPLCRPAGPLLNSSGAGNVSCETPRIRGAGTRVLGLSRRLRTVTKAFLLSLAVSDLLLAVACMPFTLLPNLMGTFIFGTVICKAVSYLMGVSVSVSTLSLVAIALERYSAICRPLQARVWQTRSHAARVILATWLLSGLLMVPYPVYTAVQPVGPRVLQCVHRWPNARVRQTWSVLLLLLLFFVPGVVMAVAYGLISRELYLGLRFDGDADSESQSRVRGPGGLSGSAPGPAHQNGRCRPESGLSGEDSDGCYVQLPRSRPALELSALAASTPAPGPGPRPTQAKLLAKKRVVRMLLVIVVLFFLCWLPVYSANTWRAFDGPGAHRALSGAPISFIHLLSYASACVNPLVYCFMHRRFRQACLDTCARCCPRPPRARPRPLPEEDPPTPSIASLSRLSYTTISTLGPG
Outline: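 Guinea pig cerebral cortex homogenate as receptor source, with radiolabeled CCK-33 in HEPES buffer containing MgCl2, bacitracin, EGTA and 0.4% BSA. Incubation 2 h at 25°C; bound ligand pelleted by centrifugation and gamma-counted.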

[2] = target: T3, Gastrin receptor (gastric glands) (Cavia porcellus, UniProt H0VZC5); assay: Gastrin Receptor Binding in Guinea Pig Gastric Glands; set-up: species or system guinea pig (male Hartley); conditions: 25° C., 30 minutes
T3 construct: The washed guinea pig gastric glands prepared as above were resuspended; from tissue; host or cells: guinea pig gastric mucosal glands (male Hartley)
T3 sequence (H0VZC5 1-426): T2 sequence (H0VZC5 1-426)

[3] = read-out: IC50 ^125 I-CCK Brain
[4] = ^125 I-gastrin, read-out: IC50 ^125 I-Gastrin Gastric Glands
[5] = read-out: IC50 ^125 I-CCK Pancreas
[6] = IC50 ^125 I-Gastrin Gastric Glands

SMILES: CN1C(=O)C(C(O)c2cn(C)c3ccccc23)N=C(c2ccccc2)c2ccccc21 (racemic) [Example 50a, 1,3-Dihydro-3(RS)-[1-hydroxy-1-[3-(1-methylindolyl)]]-methyl-1-methyl-5-phenyl-2H-1,4-benzodiazepin-2-one]
- IC50 (CCK receptor (pancreas); IC50 ^125 I-CCK Pancreas): 15 µM
- IC50 [1, 3]: 2.6 µM
- IC50 [2, 4]: 1.2 µM

SMILES: CN1C(=O)C(C(O)c2cn(C)c3ccccc23)N=C(c2ccccc2)c2ccccc21 (racemic) [Example 50b, 1,3-Dihydro-3(RS)-[1-hydroxy-1-[3-(1-methylindolyl)]]-methyl-1-methyl-5-phenyl-2H-1,4-benzodiazepin-2-one]
- IC50 (CCK receptor (pancreas); IC50 ^125 I-CCK Pancreas): 100 µM
- IC50 [1, 3]: 40 µM
- IC50 [2, 4]: 61 µM

SMILES: CN1C(=O)C(C(O)c2ccccc2)N=C(c2ccccc2)c2ccccc21 (racemic) [Example 51, 1,3-Dihydro-3(RS)-(1-hydroxy-1-phenyl)methyl-1-methyl-5-phenyl-2H-1,4-benzodiazepin-2-one]
- IC50 (CCK receptor (pancreas); IC50 ^125 I-CCK Pancreas): > 100 µM
- IC50 [1, 3]: 32 µM
- IC50 [2, 4]: 25 µM

SMILES: CN1C(=O)C(C(O)c2cccs2)N=C(c2ccccc2)c2ccccc21 (racemic) [Example 52, 1,3-Dihydro-3(RS)-[1-hydroxy-1-(2-thienyl)]methyl-1-methyl-5-phenyl-2H-1,4-benzodiazepin-2-one]
- IC50 (CCK receptor (pancreas); IC50 ^125 I-CCK Pancreas): > 100 µM
- IC50 [1, 3]: 33 µM
- IC50 [2, 4]: 26 µM

SMILES: CN1C(=O)C(O)(C(=O)c2ccsc2)N=C(c2ccccc2)c2ccccc21 (racemic) [Example 53a, 1,3-Dihydro-3-(RS)-hydroxy-1-methyl-5-phenyl-3-(3'-thienoyl)-2H-1,4-benzodiazepin-2-one]
- IC50 (CCK receptor (pancreas); IC50 ^125 I-CCK Pancreas): 100 µM
- IC50 [1, 3]: 4.2 µM
- IC50 [2, 4]: 0.85 µM

SMILES: CN1C(=O)C(C(=O)c2ccsc2)=NC(O)(c2ccccc2)c2ccccc21 (racemic) [Example 53b, 1,5-Dihydro-5-(RS)-hydroxy-1-methyl-5-phenyl-3-(3'-thienoyl)-2H-1,4-benzodiazepin-2-one]
- IC50 (CCK receptor (pancreas); [5]): 19 µM
- IC50 [1, 3]: 100 µM
- IC50 [2, 4]: > 100 µM

SMILES: O=C1Nc2ccccc2C(c2ccccc2)=NC1Cc1c[nH]c2ccc(Br)cc12 (racemic) [Example 57, 3(RS)-[3'-(5'-Bromoindolyl)methyl]-1,3-dihydro-5-phenyl-2H-1,4-benzodiazepin-2-one]
- IC50 (CCK receptor (pancreas); IC50 ^125 I-CCK Pancreas): 2.9 µM
- IC50 ([1]; IC50 ^125 I-CCK Brain): 100 µM
- IC50 [2, 6]: 700 µM

SMILES: O=C(c1ccccc1F)c1ccccc1NC(=O)C(CN1C(=O)c2ccccc2C1=O)N1C(=O)c2ccccc2C1=O (racemic) [Example 62, 2-N-[2(RS)-3-diphthalylaminopropanoyl]amino-2'-fluorobenzophenone]
- IC50 (CCK receptor (pancreas); [5]): > 100 µM
- IC50 [1, 3]: > 100 µM
- IC50 [2, 4]: > 1000 µM

SMILES: NCC1N=C(c2ccccc2F)c2ccccc2NC1=O (racemic) [Example 63, 1,3-Dihydro-5-(2'-fluorophenyl)-3(RS)-aminomethyl-2H-1,4-benzodiazepin-2-on]
- IC50 (CCK receptor (pancreas); IC50 ^125 I-CCK Pancreas): > 100 µM
- IC50 ([1]; IC50 ^125 I-CCK Brain): > 100 µM
- IC50 [2, 6]: > 1000 µM

SMILES: O=C1Nc2ccccc2C(c2ccccc2F)=NC1CNc1cncc(Cl)n1 (racemic) [Example 70, 1,3-Dihydro-5-(2'-fluorophenyl)-3-(RS)-(6'-chloropyrazin-2yl)aminomethyl-2H-4-benzodiazepin-2-one]
- IC50 (CCK receptor (pancreas); IC50 ^125 I-CCK Pancreas): 15 µM
- IC50 [1, 3]: 100 µM
- IC50 [2, 4]: 200 µM

SMILES: O=C(OC1N=C(c2ccccc2)c2ccccc2NC1=O)c1cc2ccccc2[nH]1 (racemic) [Example 107, 1,3-Dihydro-3-(RS)-(2-indolecarbonyloxy)-5-phenyl-2H-1,4-benzodiazepin-2-one]
- IC50 (CCK receptor (pancreas); IC50 ^125 I-CCK Pancreas): 0.049 µM
- IC50 ([1]; IC50 ^125 I-CCK Brain): 50 µM
- IC50 [2, 6]: > 10 µM

SMILES: O=C(NC1N=C(c2ccccc2F)c2ccccc2NC1=O)c1ccc(Cl)cc1 (racemic) [Example 111, 1,3-Dihydro-3-(RS)-(4-chlorophenylcarbonyl)amino-5-(2-fluorophenyl)-2H-1,4-benzodiazepin-2-one]
- IC50 (CCK receptor (pancreas); IC50 ^125 I-CCK Pancreas): 0.007 µM
- IC50 ([1]; IC50 ^125 I-CCK Brain): 40 µM
- IC50 [2, 6]: 8.4 µM

SMILES: Cc1ccc(S(=O)(=O)NC2N=C(c3ccccc3F)c3ccccc3NC2=O)cc1 (racemic) [Example 112, 1,3-Dihydro-3-(RS)-(4-methylphenylsulfonyl)amino-5-(2-fluorophenyl)-2H-1,4-benzodiazepin-2-one]
- IC50 (CCK receptor (pancreas); IC50 ^125 I-CCK Pancreas): 24 µM
- IC50 [1, 3]: > 50 µM
- IC50 [2, 4]: > 10 µM

SMILES: CC1=C(C(=O)NC2N=C(c3ccccc3F)c3ccccc3NC2=O)Cc2ccccc21 (racemic) [Example 115, 1,3-Dihydro-3-(RS)-(3'-methylindenyl-2-carbonyl)amino-5-(2-fluorophenyl)-2H-1,4-benzodiazepin-2-one]
- IC50 (CCK receptor (pancreas); IC50 ^125 I-CCK Pancreas): 0.022 µM
- IC50 [1, 3]: 3.5 µM
- IC50 [2, 4]: > 10 µM

SMILES: O=C(NC1N=C(c2ccccc2F)c2ccccc2NC1=O)c1ccc2ccccc2n1 (racemic) [Example 116]
- IC50 (CCK receptor (pancreas); IC50 ^125 I-CCK Pancreas): 0.3 µM
- IC50 [1, 3]: 80 µM
- IC50 [2, 4]: > 10 µM

SMILES: O=C1Nc2ccccc2C(c2ccccc2F)=NC1NCc1cc2ccccc2[nH]1 (racemic) [Example 124, 1,3-Dihydro-5-(2-fluorophenyl)-3-(RS)-(2-indolylmethyl-amino)-2H-1,4-benzodiazepin-2-one]
- IC50 (CCK receptor (pancreas); IC50 ^125 I-CCK Pancreas): 0.25 µM
- IC50 ([1]; IC50 ^125 I-CCK Brain): 100 µM
- IC50 [2, 6]: > 10 µM

SMILES: O=C(CNc1ccccc1)NC1N=C(c2ccccc2F)c2ccccc2NC1=O (racemic) [Example 125, 1,3-Dihydro-3-(RS)-(phenylaminomethylcarbonyl)amino-5-(2-fluorophenyl)-2H-1,4-benzodiazepin-2-one]
- IC50 (CCK receptor (pancreas); IC50 ^125 I-CCK Pancreas): 0.9 µM
- IC50 ([1]; IC50 ^125 I-CCK Brain): 100 µM
- IC50 [2, 6]: > 10 µM

SMILES: N#Cc1ccc(C(=O)NC2N=C(c3ccccc3)c3ccccc3NC2=O)cc1 (racemic) [Example 149, 3-(RS)-(4'-Cyanobenzoylamino)1,3-dihydro-5-phenyl-2H-1,4-benzodiazepin-2-one]
- IC50 (CCK receptor (pancreas); IC50 ^125 I-CCK Pancreas): 0.73 µM
- IC50 ([1]; IC50 ^125 I-CCK Brain): > 100 µM
- IC50 [2, 6]: 22 µM

SMILES: O=C(NC1N=C(c2ccccc2F)c2ccccc2NC1=O)OCc1ccccc1 (racemic) [Example 175, 1,3-Dihydro-5-(2-fluorophenyl)-3(RS)-benzyloxycarbonylamino-2H-1,4-benzodiazepin-2-one]
- IC50 (CCK receptor (pancreas); IC50 ^125 I-CCK Pancreas): 0.7 µM
- IC50 [1, 3]: 15 µM
- IC50 [2, 4]: 8 µM

SMILES: O=C(NC1N=C(c2ccccc2F)c2ccccc2NC1=S)OCc1ccccc1 (racemic) [Example 176, 1,3-Dihydro-5-(2-fluorophenyl)-3-(RS)-benzyloxycarbonylamino-2H-1,4-benzodiazeoin-2-thione]
- IC50 (CCK receptor (pancreas); IC50 ^125 I-CCK Pancreas): 1 µM
- IC50 ([1]; IC50 ^125 I-CCK Brain): 10 µM
- IC50 [2, 6]: 3.2 µM

SMILES: O=C(OC1N=C(c2ccccc2F)c2ccccc2N(C(=O)c2ccc(Cl)cc2)C1=O)c1ccc(Cl)cc1 (racemic) [Example 178, 1-(4-Chlorophenyl)carbonyl-1,3-dihydro-5-(2-fluorophenyl)-3(RS)-(4-chlorophenyl)carbonyloxy-2H-1,4-benzodiazepin-2-one]
- IC50 (CCK receptor (pancreas); IC50 ^125 I-CCK Pancreas): 4.9 µM
- IC50 [1, 3]: > 100 µM
- IC50 [2, 4]: > 100 µM
